Reference: the NIST ThermoML archive (doi:10.1016/j.jct.2011.12.008)
Numbers after ± are expanded uncertainties.

Key:
[1] = xn = mol fraction of the nth substance listed; conditions: 101 kPa, Liquid; for viscosity: Capillary tube (Ostwald / Ubbelohde) method; for mass density: Vibrating tube method
[2] = 101.33 kPa, Liquid; for viscosity: Capillary tube (Ostwald / Ubbelohde) method; for mass density: Vibrating tube method

CC(C)CO [2-methyl-1-propanol] + CCCCCCn1cc[n+](C)c1.F[B-](F)(F)F
[1], x2 = 0
Conditions | mass density [kg/m3] | viscosity [mPa·s]
293.15 K | 801.75 ± 0.24 | 4.085 ± 0.17
298.15 K | 797.89 ± 0.24 | 3.45 ± 0.14
303.15 K | 793.99 ± 0.24 | 2.877 ± 0.12
308.15 K | 790.04 ± 0.24 | 2.385 ± 0.098
313.15 K | 786.04 ± 0.24 | 2.091 ± 0.086
318.15 K | 781.98 ± 0.24 | 1.85 ± 0.076
323.15 K | 777.85 ± 0.24 | 1.576 ± 0.065
328.15 K | 773.65 ± 0.24 | 1.297 ± 0.053
333.15 K | 769.36 ± 0.24 | 1.124 ± 0.046
338.15 K | 764.99 ± 0.24 | 0.9876 ± 0.041

NCCCO [3-amino-1-propanol]
[2]
Conditions | mass density [kg/m3] | viscosity [mPa·s]
293.15 K | 987.55 ± 0.23 | 39.29 ± 1.6
298.15 K | 983.55 ± 0.23 | 30.43 ± 1.3
303.15 K | 979.53 ± 0.23 | 23.87 ± 0.99
308.15 K | 975.51 ± 0.23 | 19.07 ± 0.79
313.15 K | 971.47 ± 0.23 | 15.27 ± 0.63
318.15 K | 967.43 ± 0.23 | 12.35 ± 0.51
323.15 K | 963.37 ± 0.23 | 10.22 ± 0.42
328.15 K | 959.3 ± 0.23 | 8.535 ± 0.35
333.15 K | 955.22 ± 0.23 | 7.123 ± 0.29
338.15 K | 951.14 ± 0.23 | 6.045 ± 0.25

CCCCCCn1cc[n+](C)c1.F[B-](F)(F)F [1-hexyl-3-methylimidazolium tetrafluoroborate]
[2]
Conditions | mass density [kg/m3] | viscosity [mPa·s]
293.15 K | 1149.05 ± 1.2 | 234.68 ± 11
298.15 K | 1145.61 ± 1.1 | 178.92 ± 8.4
303.15 K | 1142.3 ± 1.1 | 136.15 ± 6.2
308.15 K | 1138.95 ± 1.1 | 106.65 ± 4.7
313.15 K | 1135.59 ± 1.1 | 83.13 ± 3.6
318.15 K | 1132.22 ± 1.1 | 69.13 ± 2.9
323.15 K | 1128.88 ± 1.1 | 56.74 ± 2.4
328.15 K | 1125.5 ± 1.1 | 48.36 ± 2
333.15 K | 1122.14 ± 1.1 | 43.01 ± 1.8
338.15 K | 1118.8 ± 1.1 | 37.15 ± 1.6

CCCCCCn1cc[n+](C)c1.F[B-](F)(F)F [1-hexyl-3-methylimidazolium tetrafluoroborate] + NCCCO
[1], x1 = 1
Conditions | mass density [kg/m3] | viscosity [mPa·s]
293.15 K | 1149.05 ± 1.1 | 234.68 ± 11
298.15 K | 1145.61 ± 1.1 | 178.92 ± 8.4
303.15 K | 1142.3 ± 1.1 | 136.15 ± 6.2
308.15 K | 1138.95 ± 1.1 | 106.65 ± 4.7
313.15 K | 1135.59 ± 1.1 | 83.13 ± 3.6
318.15 K | 1132.22 ± 1.1 | 69.13 ± 2.9
323.15 K | 1128.88 ± 1.1 | 56.74 ± 2.4
328.15 K | 1125.5 ± 1.1 | 48.36 ± 2
333.15 K | 1122.14 ± 1.1 | 43.01 ± 1.8
338.15 K | 1118.8 ± 1.1 | 37.15 ± 1.6

CC(C)CO [2-methyl-1-propanol]
[2]
Conditions | mass density [kg/m3] | viscosity [mPa·s]
293.15 K | 801.75 ± 0.24 | 4.085 ± 0.17
298.15 K | 797.89 ± 0.24 | 3.45 ± 0.14
303.15 K | 793.99 ± 0.24 | 2.877 ± 0.12
308.15 K | 790.04 ± 0.24 | 2.385 ± 0.098
313.15 K | 786.04 ± 0.24 | 2.091 ± 0.086
318.15 K | 781.98 ± 0.24 | 1.85 ± 0.076
323.15 K | 777.85 ± 0.24 | 1.576 ± 0.065
328.15 K | 773.65 ± 0.24 | 1.297 ± 0.053
333.15 K | 769.36 ± 0.24 | 1.124 ± 0.046
338.15 K | 764.99 ± 0.24 | 0.9876 ± 0.041
